Consider 4 molecules from PubChem BioAssay AID1259407 (Chemical Carcinogenesis Research Information System (CCRIS), 2018).

The structures appear in SMILES notation. Calls of active or inactive are those of the source. No rule for the calls is given here.

In this series the test system is CCRIS mutagenicity, Ames/micronucleus/aberration tests. The series can be described thus: CCRIS mutagenicity studies.
[1] abbreviates: Test System: AMES SALMONELLA TYPHIMURIUM, Strain/Indicator: TA98, Metabolic Activation: NONE, Method: STANDARD PLATE.
[2] abbreviates: Test System: AMES SALMONELLA TYPHIMURIUM, Strain/Indicator: TA97, Metabolic Activation: HAMSTER, LIVER, S-9, AROCLOR 1254 (10 OR 30%), Method: PREINCUBATION
Where [3] appears, read: Test System: AMES SALMONELLA TYPHIMURIUM, Strain/Indicator: TA97, Metabolic Activation: NONE, Method: PREINCUBATION
Setting [4] is: Test System: AMES SALMONELLA TYPHIMURIUM, Strain/Indicator: TA97, Metabolic Activation: RAT, LIVER, S-9, AROCLOR 1254 (10 OR 30%), Method: PREINCUBATION
The mark [5] stands for this setting: Test System: AMES SALMONELLA TYPHIMURIUM, Strain/Indicator: TA98, Metabolic Activation: HAMSTER, LIVER, S-9, AROCLOR 1254 (10 OR 30%), Method: PREINCUBATION
Where [6] appears, read: Test System: AMES SALMONELLA TYPHIMURIUM, Strain/Indicator: TA98, Metabolic Activation: NONE, Method: PREINCUBATION
Where [7] appears, read: Test System: AMES SALMONELLA TYPHIMURIUM, Strain/Indicator: TA98, Metabolic Activation: RAT, LIVER, S-9, AROCLOR 1254 (10 OR 30%), Method: PREINCUBATION
The mark [8] stands for this setting: Test System: AMES SALMONELLA TYPHIMURIUM, Strain/Indicator: TA100, Metabolic Activation: HAMSTER, LIVER, S-9, AROCLOR 1254 (10 OR 30%), Method: PREINCUBATION
Where [9] appears, read: Test System: AMES SALMONELLA TYPHIMURIUM, Strain/Indicator: TA100, Metabolic Activation: NONE, Method: PREINCUBATION
Setting [10] is: Test System: AMES SALMONELLA TYPHIMURIUM, Strain/Indicator: TA100, Metabolic Activation: RAT, LIVER, S-9, AROCLOR 1254 (10 OR 30%), Method: PREINCUBATION
[11] abbreviates: Test System: AMES SALMONELLA TYPHIMURIUM, Strain/Indicator: TA1535, Metabolic Activation: HAMSTER, LIVER, S-9, AROCLOR 1254 (10 OR 30%), Method: PREINCUBATION
Where [12] appears, read: Test System: AMES SALMONELLA TYPHIMURIUM, Strain/Indicator: TA1535, Metabolic Activation: NONE, Method: PREINCUBATION
[13] abbreviates: Test System: AMES SALMONELLA TYPHIMURIUM, Strain/Indicator: TA1535, Metabolic Activation: RAT, LIVER, S-9, AROCLOR 1254 (10 OR 30%), Method: PREINCUBATION

Turning to `COc1cc(O)c2c(c1)C1=C[C@H](O)[C@@H](O)C[C@]1(C)OC2=O`, the mutagenic call is “inactive; negative. nitrosation did not increase mutagenicity” (End Point: Ames Salmonella typhimurium, Strain/Indicator: TA97, Metabolic Activation: None, Method: Standard plate); “inactive; negative. nitrosation did not increase mutagenicity” (End Point: Ames Salmonella typhimurium, Strain/Indicator: TA97, Metabolic Activation: Rat, Liver, S-9, Aroclor 1254 (10%), Method: Standard plate); “inactive; negative. nitrosation did not increase mutagenicity” (End Point: Ames Salmonella typhimurium, Strain/Indicator: TA102, Metabolic Activation: None, Method: Standard plate); “inactive; negative. nitrosation did not increase mutagenicity” (End Point: Ames Salmonella typhimurium, Strain/Indicator: TA102, Metabolic Activation: Rat, Liver, S-9, Aroclor 1254 (10%), Method: Standard plate); “inactive; negative. nitrosation did not increase mutagenicity” (End Point: Ames Salmonella typhimurium, Strain/Indicator: TA104, Metabolic Activation: None, Method: Standard plate); “inactive; negative. nitrosation did not increase mutagenicity” (End Point: Ames Salmonella typhimurium, Strain/Indicator: TA104, Metabolic Activation: Rat, Liver, S-9, Aroclor 1254 (10%), Method: Standard plate). Moreover, the mutagenic call is “inactive; negative” under setting [1]; “inactive; negative” (Test System: AMES SALMONELLA TYPHIMURIUM, Strain/Indicator: TA98, Metabolic Activation: RAT LIVER S-9, AROCLOR 1254, Method: STANDARD PLATE); “inactive; negative” (Test System: AMES SALMONELLA TYPHIMURIUM, Strain/Indicator: TA100, Metabolic Activation: NONE, Method: STANDARD PLATE); “inactive; negative” (Test System: AMES SALMONELLA TYPHIMURIUM, Strain/Indicator: TA100, Metabolic Activation: RAT LIVER S-9, AROCLOR 1254, Method: STANDARD PLATE).
In the case of `CN(C)C(=O)Nc1cccc(C(F)(F)F)c1`, the mutagenic call is “inactive; negative” (End Point: IN VITRO CHROMOSOMAL ABERRATIONS, Test System: CHO-LB CELLS, Metabolic Activation: NONE); “inactive; negative” (End Point: IN VITRO CHROMOSOMAL ABERRATIONS, Test System: CHO-LB CELLS, Metabolic Activation: RAT, LIVER, S-9, AROCLOR 1254); “inactive; negative” under setting [2]; “inactive; negative” under setting [3]; “inactive; negative” under setting [4]; “inactive; negative” under setting [5]. For the same molecule, the mutagenic call by setting is: under setting [6], “inactive; negative”; under setting [7], “inactive; negative”; under setting [8], “inactive; negative”; under setting [9], “inactive; negative”; under setting [10], “inactive; negative”; under setting [11], “inactive; negative”. The mutagenic call is, setting by setting: under setting [12], “inactive; negative”; under setting [13], “inactive; negative”; (Test System: AMES SALMONELLA TYPHIMURIUM, Strain/Indicator: TA1535, Metabolic Activation: RAT, LIVER, S-9, Method: STANDARD PLATE) “active; positive”; (Test System: E. COLI, Strain/Indicator: WP2 UVRA, Metabolic Activation: HAMSTER, LIVER, S-9, AROCLOR 1254, Method: STANDARD PLATE) “inactive; negative”; (Test System: E. COLI, Strain/Indicator: WP2 UVRA, Metabolic Activation: HAMSTER, LIVER, S-9, Method: STANDARD PLATE) “inactive; negative”; (Test System: E. COLI, Strain/Indicator: WP2 UVRA, Metabolic Activation: MOUSE, LIVER, S-9, AROCLOR 1254, Method: STANDARD PLATE) “inactive; negative”. The mutagenic call is “inactive; negative” (Test System: E. COLI, Strain/Indicator: WP2 UVRA, Metabolic Activation: MOUSE, LIVER, S-9, Method: STANDARD PLATE); “inactive; negative” (Test System: E. COLI, Strain/Indicator: WP2 UVRA, Metabolic Activation: NONE, Method: STANDARD PLATE); “inactive; negative” (Test System: E. COLI, Strain/Indicator: WP2 UVRA, Metabolic Activation: RAT, LIVER, S-9, AROCLOR 1254, Method: STANDARD PLATE); “inactive; negative” (Test System: E. COLI, Strain/Indicator: WP2 UVRA, Metabolic Activation: RAT, LIVER, S-9, Method: STANDARD PLATE).
Turning to `NC(=O)NNC(N)=O`, the mutagenic call by setting is: under setting [2], “inactive; negative”; under setting [3], “inactive; negative”; under setting [4], “inactive; negative”; under setting [5], “inactive; negative”; under setting [6], “inactive; negative”; under setting [7], “inactive; negative”. In addition, the mutagenic call is “inactive; negative” under setting [8]; “inactive; negative” under setting [9]; “inactive; negative” under setting [10]; “inactive; negative” under setting [11]; “inactive; negative” under setting [12]; “inactive; negative” under setting [13]. Also, the mutagenic call is “inactive; negative” (Test System: AMES SALMONELLA TYPHIMURIUM, Strain/Indicator: TA1537, Metabolic Activation: HAMSTER, LIVER, S-9, AROCLOR 1254 (10 OR 30%), Method: PREINCUBATION); “inactive; negative” (Test System: AMES SALMONELLA TYPHIMURIUM, Strain/Indicator: TA1537, Metabolic Activation: NONE, Method: PREINCUBATION); “inactive; negative” (Test System: AMES SALMONELLA TYPHIMURIUM, Strain/Indicator: TA1537, Metabolic Activation: RAT, LIVER, S-9, AROCLOR 1254 (10 OR 30%), Method: PREINCUBATION).
For the molecule `O=[N+]([O-])c1ccc2cc3c(cc2c1)[C@H](O)[C@@H](O)C=C3`, the mutagenic call reads like this: under setting [1], “active; positive”; (Test System: AMES SALMONELLA TYPHIMURIUM, Strain/Indicator: TA98, Metabolic Activation: RAT, LIVER, S-9, AROCLOR 1254, Method: STANDARD PLATE) “active; positive”.
